Values after ≈ are worked out from the molar mass of the structure shown. Each block holds one compound with its values, some of them ahead of it.
What was measured:
Assay in all cases: ≥ marks a high value that may be exact or a test limit, other limits are often not marked, values filed in µg/mL are converted to µM
[1] = tested on: Listeria monocytogenes ATCC 19115
[2] = tested on: Staphylococcus aureus CMCC 26003
Saccharomyces cerevisiae = tested on: Saccharomyces cerevisiae
[3] = tested on: Listeria monocytogenes ATCC 7611
[4] = tested on: Lacticaseibacillus casei HZ1
[5] = tested on: Klebsiella pneumoniae ATCC 700603
[6] = tested on: Klebsiella aerogenes ATCC 13048
[7] = tested on: Staphylococcus aureus ATCC 29213
[8] = tested on: Staphylococcus aureus ST1065
Escherichia coli ML-35p = tested on: Escherichia coli ML-35p
[9] = tested on: Enterococcus faecium BM4147
[10] = tested on: Enterococcus faecalis ATCC 29212
[11] = tested on: Staphylococcus epidermidis BM3302
[12] = tested on: Staphylococcus aureus ATCC 6538
[13] = tested on: Kocuria rhizophila ATCC 9341
[14] = tested on: Bacillus subtilis subsp. subtilis CIP 52.65
[15] = tested on: Escherichia coli ATCC 35218
[16] = tested on: Staphylococcus aureus DAR 5829
[17] = tested on: Escherichia coli ATCC 8739
Escherichia coli K-12 = tested on: Escherichia coli K-12
[18] = tested on: Pseudomonas aeruginosa ATCC 27853
[19] = tested on: Candida albicans ATCC 10231
[20] = tested on: Candida parapsilosis CBS 604
Candida krusei CBS 573 = tested on: Candida krusei CBS 573
[21] = tested on: Saccharomyces cerevisiae SZMC 0644
[22] = tested on: Staphylococcus aureus CCARM 3090
[23] = tested on: Escherichia coli CCARM 1229
[24] = tested on: Pseudomonas aeruginosa 4007
[25] = tested on: Escherichia coli CCARM 1238
[26] = tested on: Staphylococcus aureus CCARM 3518
[27] = tested on: Trichosporon beigelii KCTC 7707
[28] = tested on: Pseudomonas aeruginosa 4891
[29] = tested on: Candida albicans KCTC 7270
[30] = tested on: Salmonella enterica subsp. enterica serovar Typhimurium ATCC 14028
[31] = tested on: Bacillus cereus ATCC 10876
[32] = tested on: Streptococcus equi subsp. zooepidemicus ATCC 43079
[33] = tested on: Streptococcus dysgalactiae subsp. dysgalactiae ATCC 27957
[34] = tested on: Streptococcus agalactiae ATCC 27956
Klebsiella pneumoniae = tested on: Klebsiella pneumoniae
[35] = tested on: Escherichia coli ATCC 25922
[36] = tested on: Streptococcus iniae KCTC 3657
[37] = tested on: Staphylococcus aureus ATCC 25923

Structure (SMILES): CC[C@H](C)[C@H](NC(=O)[C@H](CCCN=C(N)N)NC(=O)[C@H](CCCN=C(N)N)NC(=O)[C@H](Cc1c[nH]c2ccccc12)NC(=O)[C@@H](N)Cc1ccccc1)C(=O)N[C@@H](CCCN=C(N)N)C(=O)N[C@H](C(=O)N[C@H](C(=O)N1CCC[C@H]1C(=O)N[C@H](C(=O)N[C@H](C(=O)N[C@@H](CC(N)=O)C(=O)N1CCC[C@H]1C(=O)N1CCC[C@H]1C(=O)N[C@@H](Cc1ccccc1)C(=O)N[C@@H](CC(C)C)C(=O)N[C@@H](CCC(N)=O)C(=O)N[C@@H](CCC(N)=O)C(=O)N[C@H](C(N)=O)[C@@H](C)O)C(C)C)C(C)C)[C@@H](C)O)C(C)C [FWRRIRVTPVVNPPFLQQT]
MIC [1]: ≥ 109 µM
MIC [2]: ≥ 109 µM

Structure (SMILES): CC(C)C[C@H](NC(=O)[C@H](Cc1ccccc1)NC(=O)[C@H](CCCCN)NC(=O)[C@H](Cc1ccccc1)NC(=O)[C@H](Cc1ccccc1)NC(=O)[C@H](Cc1cnc[nH]1)NC(=O)[C@@H](NC(=O)[C@H](Cc1c[nH]c2ccccc12)NC(=O)[C@@H](NC(=O)[C@H](CO)NC(=O)[C@@H]1CCCN1C(=O)[C@H](CC(C)C)NC(=O)[C@H](Cc1ccccc1)NC(=O)[C@H](CC(C)C)NC(=O)[C@H](CCCCN)NC(=O)[C@H](CC(C)C)NC(=O)[C@@H]1CCCN1C(=O)[C@H](CC(N)=O)NC(=O)CN)[C@@H](C)O)C(C)C)C(=O)N[C@@H](CCCN=C(N)N)C(=O)O [GNPLKLFLPSTWVHFFKFLR]
MIC (Saccharomyces cerevisiae): ≥ 256 µM
MIC [3]: 4 µM (≈ 9.79 µg/mL)
MIC [4]: ≥ 32 µM
MIC [5]: > 256 µM
MIC [6]: ≥ 64 µM
MIC [7]: 4 µM (≈ 9.79 µg/mL)

Structure (SMILES): CC[C@H](C)[C@H](NC(=O)[C@@H](NC(=O)[C@H](CCCCN)NC(=O)[C@H](CO)NC(=O)[C@H](CCCCN)NC(=O)[C@H](CC(=O)O)NC(=O)[C@H](CO)NC(=O)[C@@H]1CCCN1C(=O)CNC(=O)[C@H](CO)NC(=O)[C@H](Cc1cnc[nH]1)NC(=O)[C@H](Cc1ccc(O)cc1)NC(=O)[C@@H](N)CCCCN)C(C)C)C(=O)N[C@@H](CO)C(=O)O [KYHSGPSDKSKVIS]
MIC [19]: > 65.2 µM
MIC [20]: ≥ 65.2 µM
MIC (Candida krusei CBS 573): ≥ 65.2 µM
MIC [21]: ≥ 65.2 µM

Structure (SMILES): CC[C@H](C)[C@H](NC(=O)[C@H](CCCCN)NC(=O)[C@H](CCC(N)=O)NC(=O)[C@H](CC(C)C)NC(=O)CNC(=O)[C@H](CCCCN)NC(=O)CNC(=O)[C@H](CC(C)C)NC(=O)[C@H](CCCCN)NC(=O)[C@H](CCCCN)NC(=O)[C@H](CCCN=C(N)N)NC(=O)[C@H](C)NC(=O)[C@H](CCCCN)NC(=O)[C@H](CCCN=C(N)N)NC(=O)[C@H](Cc1ccccc1)NC(=O)[C@H](Cc1ccccc1)NC(=O)[C@H](CCCCN)NC(=O)[C@@H](N)CO)C(=O)N[C@@H](CCCCN)C(=O)N[C@@H](CC(N)=O)C(=O)N[C@H](C(=O)N[C@@H](CC(C)C)C(=O)N[C@@H](CCCN=C(N)N)C(=O)N[C@@H](CCCCN)C(=O)N[C@@H](Cc1ccc(O)cc1)C(=O)O)C(C)C [SKFFRKARKKLGKGLQKIKNVLRKY]
MIC [30]: 1.65 µM (≈ 5 µg/mL)
MIC [31]: 21.1 µM (≈ 64 µg/mL)
MIC [32]: 4.9 µM (≈ 14.9 µg/mL)
MIC [10]: 13.2 µM (≈ 40.1 µg/mL)
MIC [12]: 13.2 µM (≈ 40.1 µg/mL)
MIC [33]: 4.9 µM (≈ 14.9 µg/mL)
MIC [34]: 13.2 µM (≈ 40.1 µg/mL)
MIC (Klebsiella pneumoniae): 1.32 µM (≈ 4 µg/mL)
MIC [35]: 0.264 µM (≈ 0.8 µg/mL)
MIC [36]: 21.1 µM (≈ 64 µg/mL)
MIC [37]: 24.7 µM (≈ 75 µg/mL)
MIC [18]: 0.329 µM (≈ 1 µg/mL)

Now from value to compound:

MIC [8]: 12.5 µM (≈ 33.7 µg/mL)
MIC (Escherichia coli ML-35p): ≥ 100 µM
MIC [9]: 25 µM (≈ 67.3 µg/mL)
MIC [10]: 50 µM (≈ 135 µg/mL)
MIC [11]: 12.5 µM (≈ 33.7 µg/mL)
MIC [12]: 6.25 µM (≈ 16.8 µg/mL)
MIC [13]: 3.12 µM (≈ 8.4 µg/mL)
MIC [14]: 6.25 µM (≈ 16.8 µg/mL)
MIC [15]: ≥ 100 µM
MIC [16]: 25 µM (≈ 67.3 µg/mL)
MIC [7]: 3.12 µM (≈ 8.4 µg/mL)
MIC [17]: 25 µM (≈ 67.3 µg/mL)
MIC (Escherichia coli K-12): ≥ 100 µM
MIC [18]: > 100 µM
Structure (SMILES): CC[C@H](C)[C@H](NC(=O)CNC(=O)[C@H](Cc1c[nH]c2ccccc12)NC(=O)[C@@H](NC(=O)CN)C(C)C)C(=O)N[C@@H](C)C(=O)N[C@@H](CCCCN)C(=O)N[C@H](C(=O)N[C@@H](C)C(=O)NCC(=O)N[C@@H](CCCCN)C(=O)N[C@H](C(=O)N[C@@H](CC(C)C)C(=O)NCC(=O)N[C@@H](CC(N)=O)C(=O)N[C@H](C(=O)N[C@@H](CC(C)C)C(=O)N1CCC[C@H]1C(=O)N[C@@H](Cc1cnc[nH]1)C(=O)N[C@H](C(=O)N[C@@H](Cc1ccccc1)C(=O)N[C@@H](CO)C(=O)N[C@@H](CO)C(=O)N[C@@H](CC(N)=O)C(=O)N[C@@H](CCC(N)=O)C(=O)N[C@@H](CO)C(N)=O)C(C)C)[C@@H](C)CC)C(C)C)[C@@H](C)CC [GVWGIAKIAGKVLGNILPHVFSSNQS]

MIC [22]: 4 µM (≈ 8.42 µg/mL)
MIC [23]: 2 µM (≈ 4.21 µg/mL)
MIC [24]: 2 µM (≈ 4.21 µg/mL)
MIC [25]: 2 µM (≈ 4.21 µg/mL)
MIC [26]: 4 µM (≈ 8.42 µg/mL)
MIC [27]: 8 µM (≈ 16.8 µg/mL)
MIC [28]: 4 µM (≈ 8.42 µg/mL)
MIC [29]: 16 µM (≈ 33.7 µg/mL)
Structure (SMILES): CC[C@H](C)[C@H](NC(=O)[C@H](CC(C)C)NC(=O)[C@H](CCCCN)NC(=O)[C@@H](NC(=O)[C@H](C)NC(=O)[C@H](CCC(=O)O)NC(=O)[C@H](Cc1cnc[nH]1)NC(=O)[C@@H](NC(=O)[C@H](CCCCN)NC(=O)[C@H](CCC(N)=O)NC(=O)[C@H](Cc1ccccc1)NC(=O)[C@@H](NC(=O)[C@H](CCCCN)NC(=O)[C@H](CCCCN)NC(=O)[C@H](CC(C)C)NC(=O)[C@H](C)NC(=O)[C@H](CC(N)=O)NC(=O)[C@@H](N)CC(C)C)C(C)C)[C@@H](C)CC)[C@@H](C)CC)C(N)=O [LNALKKVFQKIHEAIKLI]

Reference: DBAASP
